PubChem BioAssay AID977607 (Broad Institute, 2014)
Activity calls are given as the source filed them.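 The calls were made as follows: active = curve reaches 40% activation over neutral controls at an AC40 no higher than the top valid tested concentration; inconclusive = no clear call, values can overlap the other calls; inactive = signal moving opposite to the expected increase, and the rest.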

system: INS-1E GLuc insulin secretion reporter, luminescence, 2-3 h; assay: GLuc-reported insulin release enhancers, glucose-stimulated beta cells – cell-based, INS-1E, Gaussia luciferase, luminescence, cherry-pick, set 2, dose response (AID 977607)

Structure (SMILES) | AC40
N#Cc1cccc(-c2ccc(C3[C@H]4CNC[C@@H]3N4Cc3cc(-c4ccccc4)on3)cc2)c1 (some centres undefined) | 12 µM
Cc1ccccc1-n1sc2cc(F)ccc2c1=O | 1.56 µM
COc1ccc(-c2cnnn2-c2ccc(N)cc2)cc1OC | > 35 µM (inactive)
CCOC(=O)[C@]12Cc3cc(OC)ccc3[C@H]1N(C1CCCCC1)C(=O)c1cc(OC)ccc12 | 12 µM
COc1ccc(-c2ccc(SCc3ccccn3)nn2)cc1OC | 6.41 µM
COc1ccc(Br)cc1C(=O)Nc1cccc(C)c1 | 11.6 µM
Cc1ccc(NC(=O)c2oc3ccc(S(=O)(=O)N4CCOCC4)cc3c2C)cc1C | 15.6 µM
CCOC(=O)c1cc2sccc2n1CC(=O)N1c2ccccc2CC1C (centres undefined) | 3.59 µM
Cc1ccc2oc(-c3cccc(NC(=O)Cc4cccs4)c3)nc2c1 | 5.62 µM
Cc1ccc(S(=O)(=O)C=CS(=O)(=O)c2ccc(C)cc2)cc1 | 0.224 µM
Cn1c(=O)c2c(nc3n2CCCN3CCc2ccccc2)n(C)c1=O | > 35 µM (inactive)
NS(=O)(=O)c1ccc(CCNc2nc3c(-c4cccc(F)c4)nnn3c3ccccc23)cc1 | 15.9 µM
OC(c1ccccc1)(c1ccccc1)C1CCN(CCCOc2cccc(OC(F)(F)F)c2)CC1 | 5.24 µM
Cc1ccc(C(=O)Oc2ccc(-c3nccc(-c4ccccn4)n3)cc2)cc1 | 3.99 µM
Cc1cccc(Cn2ccc(-c3ccc(Cl)cc3)c(C#N)c2=O)c1 | 7 µM
CC(C)(C(=O)N1CCC1(C)C(=O)NS(=O)(=O)c1ccc(Br)cc1)c1ccccc1 (centres undefined) | 12.7 µM
CCOc1ccc(-n2nnnc2-c2nc3ccccc3s2)cc1 | 6.78 µM
COc1ccc(CC(N)c2csc(NC(=O)Nc3ccc(C(C)C)cc3)n2)cc1 (centres undefined) | 6.81 µM
CCOc1ccc(Nc2oc(-c3ccc(Cl)cc3)nc2C#N)cc1 | 5.14 µM
CN(C(=O)c1ccc2c(c1)SC1=NS(=O)(=O)CCN12)C(c1ccccc1)c1ccccc1 | 0.518 µM
COc1ccccc1C(=O)NC(=S)NC12CC3CC(CC(C3)C1)C2 | 7.9 µM
C=CCn1cc(Cl)cc(C(=O)Nc2ccccc2)c1=O | 19.7 µM

Structure (SMILES) | AC40
CCOc1ccccc1Nc1cc2n(c(=O)n1)CCc1cc(OC)c(OC)cc1-2 | 1.07 µM
CC1CCN(S(=O)(=O)c2ccc(C(=O)OCc3ccc4c(c3)OCO4)cc2)CC1 | 13.4 µM
Fc1ccc(-c2cc(C(F)(F)F)nc(-n3cncn3)n2)cc1 | 0.52 µM
CN(Cc1c(C(=O)N/N=C/c2ccccc2O)nnn1-c1nonc1N)C1CCCCC1 | 9.53 µM
NS(=O)(=O)c1ccc(NC(=O)COC(=O)c2cn(-c3ccccc3)nc2-c2ccc(F)cc2)cc1 | 4.82 µM
Fc1ccccc1-c1ccc(C2[C@@H]3CN(Cc4ccccc4)C[C@H]2N3)cc1 (some centres undefined) | 7.05 µM
O=C(CC1c2ccccc2Oc2ccccc21)Nc1ccccc1C(F)(F)F | 6.13 µM
Cc1ccccc1Cn1ccc(NC(=O)c2cc3nc(-c4ccco4)cc(C(F)(F)F)n3n2)n1 | 4.72 µM
Cc1ccc2nc(-c3ccc(NC(=O)COC(=O)c4ccco4)cc3)sc2c1 | 4.42 µM
CNC[C@H](CC1CCCCC1)NC[C@H](Cc1ccccc1)NCCC12CC3CC(CC(C3)C1)C2 | 8.32 µM
O=C(Nc1nc(-c2ccc(-c3ccccc3)cc2)cs1)C1=COCCO1 | 6.8 µM
COc1ccc(-c2ccncc2)cc1OC | 13 µM
CCOC(=O)c1ccccc1NC(=O)c1n[nH]c(=O)c2ccccc12 | 5.47 µM
COCCn1c(=NC(=O)c2cc(Cl)sc2Cl)sc2cc(S(N)(=O)=O)ccc21 | 7.51 µM
CCOc1ccc2nc(NCCNC(=O)Nc3ccccc3)c(C#N)cc2c1 | 5.63 µM
COc1ccc(-n2sc3ccccc3c2=O)cc1 | 3.14 µM
Cc1ccc(C)c(OCC(=O)Nc2nonc2NC(=O)COc2cc(C)ccc2C)c1 | 5.44 µM
CCOCCCNC(=O)c1oc2ccc3c(c2c1C)C(O)CC(C)(C)O3 (centres undefined) | 5.92 µM
CC1(Cc2ccc(C(F)(F)F)o2)C(=O)Nc2ccc(-c3cccc(C(F)(F)F)c3)cc21 (centres undefined) | 8.84 µM
COc1ccc(-c2cc3ccccc3oc2=O)cc1NC(=S)NC(=O)c1ccc2c(c1)OCCO2 | 4.75 µM
CCCCc1ccc(NC(=O)COc2ccc(C(=O)Nc3ccccc3OCC)cc2)cc1 | 2.88 µM
COc1cc2ccc(CC(=O)O)cc2cc1OC | 2.69 µM

Structure (SMILES) | AC40
CCOc1cc(N2CCOCC2)c(OCC)cc1NC(=O)COC(=O)c1cc2ccccc2cc1O | 10.3 µM
Cc1[nH]c2ccc(OC(F)(F)F)cc2c1CCNCc1ccc(Cl)cc1 | 6.14 µM
CNc1nc(Nc2ccccc2)nc(OCC(F)(F)F)n1 | 0.606 µM
Oc1ccccc1-c1cc(C(F)(F)C(F)F)nc(-c2ccccc2)n1 | 7.7 µM
Cc1cc2c(cc1C)CSC(c1c(O)ccc3ccccc13)SC2 | 10.9 µM
C=CCn1c(-c2csc(-c3ccc(OC)c(OC)c3)n2)n[nH]c1=S | 1.01 µM
COc1ccccc1CCn1cnc(-c2cccc(F)c2)c1C(C)C | 14 µM
O=C(Nc1nnc(-c2ccccc2SCc2ccccc2F)s1)Nc1ccccc1F | 16.7 µM
CC1(Cc2cc(Cl)ccc2C(F)(F)F)C(=O)Nc2cc(C(F)(F)F)ccc21 (centres undefined) | 34 µM
FC(F)(F)c1cc(CCN2CCNC[C@H]2Cc2cccc3ccccc23)cc(C(F)(F)F)c1 | 7.24 µM
Fc1ccccc1/C=N/n1c(C2CCCCC2)n[nH]c1=S | 18.5 µM
COc1ccccc1C(=O)NC(=S)Nc1ccc2[nH]c(=O)[nH]c2c1 | 25.1 µM
COc1cc2sc3ccc(C#Cc4ccc(N)cc4)cc3c(=O)c2cc1OC | 33.4 µM
C=C(C)C1Cc2c(C)nn(-c3cccc4cccnc34)c2C1 (centres undefined) | 2.1 µM
Cc1ccc(CC2(OCCN(C)C)CCC(C(C)(C)C)CC2)cc1 (centres undefined) | 13.9 µM
CS(=O)(=O)N(Cc1ccc(Cl)cc1)c1ccc(C(=O)NCCC2=CCCCC2)cc1 | 13 µM
CC(C)(C)c1cc(NCCCn2ccnc2)n2ncc(-c3ccc(Cl)cc3)c2n1 | 6.19 µM
C/C=C/c1ccc(C2[C@@H]3CN(C(=O)Nc4ccc(C(F)(F)F)cc4)C[C@H]2N3)cc1 (some centres undefined) | 12.5 µM
COc1ccc(Br)cc1C(=O)Nc1cc(C)cc(C)c1 | 7.63 µM
O=C(CCN1CCOCC1)c1ccc2c(c1)OCCO2 | 14.5 µM
O=C(Nc1ccc2ccccc2c1)c1cccc2ccccc12 | 8.55 µM
CCOc1ncccc1C(=O)Nc1ccc(S(=O)(=O)Nc2nccs2)cc1 | 3.21 µM

Structure (SMILES) | AC40
CONc1nc(NC(C)(C)C)nc(OCC#N)n1 | > 35 µM (inactive)
O=C(c1cccs1)c1coc2ccc(O)c(CN3CCOCC3)c12 | > 35 µM (inactive)
COc1ccc(C2CC(=O)Nc3sc(=N)c4c(N)c(C#N)c(N)nc4c32)cc1OC (centres undefined) | 6.1 µM
CCOC(=O)c1c(-c2ccc(-c3ccccc3)cc2)csc1NC(=O)CNCCN(C)C | 8.58 µM
Cc1ccc(C)c(OCC(=O)N/N=C/c2c(C)nn(-c3ccccc3)c2Cl)c1C | 3.2 µM
COc1ccc2c(c1)C(=NNC(=O)c1ccccn1)c1cc(OC)ccc1-2 | 3.1 µM
COc1ccc(CCNS(=O)(=O)c2cn(C)cn2)cc1OC | 4.84 µM
COc1cc(CN2[C@@H]3CNC[C@H]2C3c2ccc(/C=C/c3ccccc3)cc2)cc(OC)c1 (some centres undefined) | 10.3 µM
O=c1c2ccccc2sn1-c1ccc(F)cc1 | 7.1 µM
CS(=O)(=O)N1CCN(c2ccc(NC(=O)c3ccc(-c4ccc(Cl)cc4)o3)cc2)CC1 | 9.25 µM
CCOc1ccc(CCNC(=O)COc2cc(=O)n(C)c3ccccc23)cc1OCC | 22.6 µM
O=C(N/N=C/c1ccc(O)cc1O)NC12CC3CC(CC(C3)C1)C2 | 18.1 µM
Cc1nn(-c2ccccc2)c2c1C(O)CC(C)(C)C2 (centres undefined) | 3.51 µM
COc1ccc(C2=NN(C(=O)CCCC(=O)O)C(c3cccs3)C2)cc1OC (centres undefined) | 11.6 µM
CC(C)(C)S(=O)N1Cc2cc(C(=O)Nc3ccc(-c4ccccc4)cc3)nc(-c3cccc(-c4cccc(F)c4)c3)c2[C@@H]1CCO (some centres undefined) | 6.27 µM
CC1(C(=O)NS(=O)(=O)c2ccc(Cl)s2)CCN1C(=O)C1(c2ccc(Cl)cc2)CCC1 (centres undefined) | > 35 µM (inactive)
COc1cccc(OCc2nc3c4cnn(-c5ccccc5)c4ncn3n2)c1 | 8.5 µM
CNc1nc(Sc2ccccc2)cc(C(F)(F)F)n1 | > 35 µM (inactive)
COC(=O)C1=C(C)N(Cc2ccc(C(F)(F)F)cc2)C(=NCc2ccccc2)NC1c1ccc(Cl)cc1 (centres undefined) | 8.24 µM
O=C(Nc1ccc(SC(F)F)cc1)c1cccc2nc3ccccc3nc12 | 9.11 µM
Oc1ccccc1C1SC(c2ccccc2O)SC(c2ccccc2O)S1 (centres undefined) | 6.08 µM
N#Cc1c(-c2cccc(Br)c2)cc(-c2cccnc2)nc1N | 5.82 µM

Structure (SMILES) | AC40
COc1cc(/C=N/NC(=O)C(C)n2nnc3ccccc32)ccc1O (centres undefined) | 6.55 µM
CC(C)n1nc(C(=O)Nc2ccccc2N2CCOCC2)c2ccccc2c1=O | 8.07 µM
Cc1ccccc1-c1ccc(C2[C@@H]3CN(C(=O)Nc4cccc(F)c4)C[C@H]2N3)cc1 (some centres undefined) | 8.64 µM
COc1ccccc1NC(=O)N1CCCCN2[C@@H](CO)[C@@H](c3ccc(C#CC4CCCC4)cc3)[C@@H]2C1 | 16.5 µM
O=c1cc(-c2ccncc2)oc2c1ccc1ccccc12 | 11.6 µM
O=C(Nc1ccc2c(c1)OCO2)N1C[C@@H]2N[C@H](C1)C2c1ccc(C=Cc2ccccc2)cc1 (some centres undefined) | 9.05 µM
CNC[C@@H](Cc1ccccc1)NC[C@@H](CC1CCCCC1)NCCCc1ccccc1 | > 35 µM (inactive)
CCC(C)Sc1cccc(-c2nc3cnccn3c2NC2CCCCC2)c1 (centres undefined) | 5.37 µM
O=C(CCn1ccc2cc(S(=O)(=O)N3CCCC3)ccc21)NCc1cccc(F)c1 | 9.56 µM
CCCCc1c(Cc2ccccc2)ncn1CCc1ccccc1OC | 14.3 µM
O=C(Nc1ccc2c(c1)OCO2)c1sc2cc(Cl)ccc2c1Cl | 12 µM
O=C(NCC1OCCc2ccccc21)c1ccc(NC(=O)c2cccc(Br)c2)cc1 (centres undefined) | 14 µM
CCOc1cc(/C=N/NC(=O)CCn2nc(C)cc2C)ccc1O | 8.04 µM
COCCNc1nc(Oc2cncc(Cl)c2)c2sccc2n1 | 2.88 µM
COc1cc(CNCCc2ccccc2)cc(Cl)c1OCc1ccccc1 | 9.79 µM
CCOC(=O)c1ccc(Nc2ncnc3ccc(C)cc23)cc1 | 12.4 µM
CC(=O)Nc1cc(-c2cccc(C(=O)NCCN(C)C)c2)cn2c(-c3cccc(C(F)(F)F)c3)cnc12 | 14.7 µM
NC1=NC[C@H](c2ccccc2)N1CCCCC1CCCCC1 | 28.8 µM
Cc1nnn(-c2nonc2N)c1C(=O)N/N=C/c1cccc2ccccc12 | 7.29 µM
CCOC(=O)[C@]12Cc3c(cc(OC)c(OC)c3OC)[C@H]1N(C1CCCCC1)C(=O)c1cc(OC)ccc12 | 15.5 µM
N#Cc1c(-c2ccncc2)cc(-c2ccc(F)cc2)nc1N | 2.96 µM
